Values of other authors, collected in patent publication US11026933B2, “Compositions and methods for treatment of cancer” (Children's Hospital Medical Center, priority 2016, dated 2021).

How the values were obtained:
proteasome = conditions: Halasi and Gartel, 2013
FOXM1 [1] = molecular target: T1, FOXM1 (Homo sapiens, UniProt Q08050); conditions: Halasi and Gartel, 2013
T1 sequence (Q08050 1-763): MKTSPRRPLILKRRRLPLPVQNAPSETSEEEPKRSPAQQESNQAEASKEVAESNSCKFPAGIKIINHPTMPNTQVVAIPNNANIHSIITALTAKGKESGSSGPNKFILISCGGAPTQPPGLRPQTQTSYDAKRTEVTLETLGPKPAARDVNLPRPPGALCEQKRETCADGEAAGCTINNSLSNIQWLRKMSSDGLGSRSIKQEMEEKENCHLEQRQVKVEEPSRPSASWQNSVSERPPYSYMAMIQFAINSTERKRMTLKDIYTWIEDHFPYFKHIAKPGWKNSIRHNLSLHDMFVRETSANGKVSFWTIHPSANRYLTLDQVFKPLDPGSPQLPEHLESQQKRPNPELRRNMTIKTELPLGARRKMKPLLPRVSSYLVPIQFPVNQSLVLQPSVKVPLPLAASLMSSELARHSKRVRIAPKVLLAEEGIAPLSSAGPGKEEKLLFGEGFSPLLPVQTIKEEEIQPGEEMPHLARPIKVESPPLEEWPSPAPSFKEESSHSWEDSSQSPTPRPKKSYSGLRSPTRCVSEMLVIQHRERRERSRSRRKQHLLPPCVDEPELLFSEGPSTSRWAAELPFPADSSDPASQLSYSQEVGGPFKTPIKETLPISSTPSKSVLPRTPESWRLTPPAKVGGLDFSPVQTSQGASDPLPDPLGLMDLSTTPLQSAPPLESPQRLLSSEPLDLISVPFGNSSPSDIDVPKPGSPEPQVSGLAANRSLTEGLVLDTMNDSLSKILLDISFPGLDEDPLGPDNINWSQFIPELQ

FOXM1 [2] = molecular target: T1, FOXM1; conditions: Halasi and Gartel, 2013; remark: listed apart in the source
FOXM1 [3] = molecular target: T1, FOXM1; conditions: Gormally et al., 2014

SMILES: C=C(NC(=O)C(=C)NC(=O)c1csc(C2=N[C@@H]3c4csc(n4)[C@H]4NC(=O)c5csc(n5)[C@H]([C@](C)(O)[C@@H](C)O)NC(=O)[C@H]5CSC(=N5)/C(=C/C)NC(=O)[C@H]([C@@H](C)O)NC(=O)c5csc(n5)[C@]3(CC2)NC(=O)[C@H](C)NC(=O)C(=C)NC(=O)[C@H](C)NC(=O)[C@H]([C@@H](C)CC)N[C@@H]2C=Cc3c([C@H](C)O)cc(nc3[C@H]2O)C(=O)O[C@@H]4C)n1)C(N)=O [thiostrepton]
- proteasome inhibition (proteasome): found to be proteasome inhibitors
- inhibition of FOXM1 in cultured tumor cells (FOXM1 [1]): inhibited FOXM1
- inhibition of FOXM1 in mouse tumor models (FOXM1 [2]): inhibited FOXM1

SMILES: C=C(NC(=O)C(=C)NC(=O)c1csc(C2=N[C@@H]3c4csc(n4)[C@H]4NC(=O)c5csc(n5)[C@H]([C@](C)(O)[C@@H](C)O)NC(=O)[C@H]5CSC(=N5)/C(=C/C)NC(=O)[C@H]([C@@H](C)O)NC(=O)c5csc(n5)[C@]3(CC2)NC(=O)[C@H](C)NC(=O)C(=C)NC(=O)C(=C)NC(=O)[C@H](C(C)C)N[C@@H]2C=Cc3c([C@H](C)O)cc(nc3[C@H]2O)C(=O)O[C@@H]4C)n1)C(N)=O [Siomycin A]
- proteasome inhibition (proteasome): found to be proteasome inhibitors
- inhibition of FOXM1 in cultured tumor cells (FOXM1 [1]): inhibited FOXM1
- inhibition of FOXM1 in mouse tumor models (FOXM1 [2]): inhibited FOXM1

SMILES: Nc1c(C(=O)Nc2ccc(F)cc2)sc2nc(-c3cccs3)cc(C(F)(F)F)c12 [FDI-6]
- FOXM1 binding to DNA (FOXM1 [3]): blocked FOXM1 binding to DNA
- binding to FOXM1 protein (FOXM1 [3]): directly bound to FOXM1 protein
